We go through 35 compounds from US20250346569A1, “NEW DERIVATIVES FOR TREATING TRPM3 MEDIATED DISORDERS” (Katholieke Universiteit Leuven, priority 2022, published 2025).

SMILES strings stand for the structures.

The target in the experiment is T1, mouse TRPM3α2 (mTRPM3) ion channel (Mus musculus, UniProt J9SQF3).
T1 construct: expressed in transfected cells; host or cells: flip-in HEK293
T1 sequence (J9SQF3 1-1709 isoform J9SQF3-12): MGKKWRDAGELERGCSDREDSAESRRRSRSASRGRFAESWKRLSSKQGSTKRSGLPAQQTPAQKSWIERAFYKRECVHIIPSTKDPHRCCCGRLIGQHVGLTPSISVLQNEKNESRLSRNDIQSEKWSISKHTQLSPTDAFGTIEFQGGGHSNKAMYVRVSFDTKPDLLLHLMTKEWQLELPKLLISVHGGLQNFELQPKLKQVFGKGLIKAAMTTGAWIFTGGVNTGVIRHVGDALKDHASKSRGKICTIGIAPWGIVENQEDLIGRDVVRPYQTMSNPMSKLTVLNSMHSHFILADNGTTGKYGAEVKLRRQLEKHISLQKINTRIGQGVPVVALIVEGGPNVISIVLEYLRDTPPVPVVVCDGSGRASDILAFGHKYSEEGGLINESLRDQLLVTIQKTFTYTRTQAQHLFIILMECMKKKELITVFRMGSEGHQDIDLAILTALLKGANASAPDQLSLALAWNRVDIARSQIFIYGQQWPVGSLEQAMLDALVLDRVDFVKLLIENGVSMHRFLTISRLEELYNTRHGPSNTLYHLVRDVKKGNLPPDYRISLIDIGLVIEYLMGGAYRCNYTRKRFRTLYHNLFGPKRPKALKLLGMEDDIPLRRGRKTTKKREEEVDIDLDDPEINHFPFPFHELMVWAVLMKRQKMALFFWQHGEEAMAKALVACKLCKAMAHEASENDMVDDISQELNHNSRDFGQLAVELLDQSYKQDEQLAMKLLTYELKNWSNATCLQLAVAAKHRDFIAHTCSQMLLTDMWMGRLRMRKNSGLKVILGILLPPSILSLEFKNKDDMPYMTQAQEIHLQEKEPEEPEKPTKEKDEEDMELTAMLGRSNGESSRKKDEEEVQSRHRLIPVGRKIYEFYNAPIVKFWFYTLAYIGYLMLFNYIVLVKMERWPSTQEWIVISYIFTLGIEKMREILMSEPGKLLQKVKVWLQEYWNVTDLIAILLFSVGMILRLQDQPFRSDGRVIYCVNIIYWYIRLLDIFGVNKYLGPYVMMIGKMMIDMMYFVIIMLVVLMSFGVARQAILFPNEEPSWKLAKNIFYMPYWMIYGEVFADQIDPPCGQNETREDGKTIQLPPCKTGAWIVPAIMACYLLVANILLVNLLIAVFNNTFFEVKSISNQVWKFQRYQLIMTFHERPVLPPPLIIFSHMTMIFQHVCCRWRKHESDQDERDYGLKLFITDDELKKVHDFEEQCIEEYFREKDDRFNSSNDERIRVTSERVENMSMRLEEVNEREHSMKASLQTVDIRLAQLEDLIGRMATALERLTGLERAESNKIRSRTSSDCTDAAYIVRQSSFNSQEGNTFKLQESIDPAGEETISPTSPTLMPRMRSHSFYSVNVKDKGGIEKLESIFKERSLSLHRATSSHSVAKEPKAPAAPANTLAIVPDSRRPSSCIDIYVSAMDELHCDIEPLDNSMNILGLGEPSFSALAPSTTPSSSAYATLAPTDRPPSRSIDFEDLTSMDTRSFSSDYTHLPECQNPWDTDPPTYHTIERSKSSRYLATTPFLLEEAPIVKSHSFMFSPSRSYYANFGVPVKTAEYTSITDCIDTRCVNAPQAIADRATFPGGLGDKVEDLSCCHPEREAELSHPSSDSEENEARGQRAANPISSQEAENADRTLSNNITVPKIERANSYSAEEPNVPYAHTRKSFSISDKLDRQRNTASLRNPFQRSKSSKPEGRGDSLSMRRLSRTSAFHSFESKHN
The experiment is described as follows: Monitoring the TRPM3 ion channel driven Ca2+ uptake (Fluo-4 AM assay). Format: cell-based. Conditions: TRPM3 overexpressing flip-in HEK293 cells, channel stimulated with Pregnenolone sulfate (PS) 50 μM. The procedure, abridged: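 Flp-In HEK293 cells overexpressing mTRPM3α2, loaded with Fluo-4 AM and added to wells holding compound plus 50 μM pregnenolone sulfate in Ca2+-containing Krebs buffer. Fluorescence (ex 485/em 535) read right after cell addition. Inhibition normalised to vehicle and positive-control inhibitor; IC50 derived.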
For `Cc1sc2ccc(OCc3ccccc3F)cc2c1C(=O)NC1(CO)CCOCC1` [Cpd 081, 5-[(2-fluorophenyl)methoxy]-N-[4-(hydroxymethyl)oxan-4-yl]-2-methyl-1-benzothiophene-3-carboxamide], the IC50 is less than 1000 nM.

On to `COc1ncccc1COc1ccc2sc(C)c(C(=O)N[C@@H](C)C(N)=O)c2c1` [Cpd 138, (2S)-2-({5-[(2-methoxypyridin-3-yl)methoxy]-2-methyl-1-benzothiophen-3-yl}formamido)propanamide], for which the IC50 was less than 1000 nM.

In turn, `Cc1sc2ccc(OCc3ccccc3F)cc2c1C(=O)NC1(CO)CCC1` [Cpd 077, 5-[(2-fluorophenyl)methoxy]-N-[1-(hydroxymethyl)cyclobutyl]-2-methyl-1-benzothiophene-3-carboxamide] returned an IC50 of less than 1000 nM. On to `Cc1ncsc1COc1ccc2sc(C)c(C(=O)N[C@H](C)C(N)=O)c2c1` [Cpd 006, (2R)-2-({2-methyl-5-[(4-methyl-1,3-thiazol-5-yl)methoxy]-1-benzothiophen-3-yl}formamido)propanamide], for which the IC50 is less than 1000 nM. The same measure for `O=C(NC1(CO)CCOCC1)c1c(C(F)F)sc2ccc(OCc3ccccc3)cc12` [Cpd 152, 5-(benzyloxy)-2-(difluoromethyl)-N-[4-(hydroxymethyl)oxan-4-yl]-1-benzothiophene-3-carboxamide]: more than 20000 nM. `Cc1sc2ccc(OCc3ccccc3)cc2c1C(=O)NC1(CO)CC1` [Cpd 073, 5-(benzyloxy)-N-[1-(hydroxymethyl)cyclopropyl]-2-methyl-1-benzothiophene-3-carboxamide] gave an IC50 of 1000 to 20000 nM. As to `Cc1ncc(COc2ccc3sc(C)c(C(=O)NC4(CO)COC4)c3c2)s1` [Cpd 025, N-[3-(hydroxymethyl)oxetan-3-yl]-2-methyl-5-[(2-methyl-1,3-thiazol-5-yl)methoxy]-1-benzothiophene-3-carboxamide], the IC50 was less than 1000 nM. Then `Cc1sc2ccc(OCc3cccnc3C(F)(F)F)cc2c1C(=O)NC1CC(F)(F)C1` [Cpd 090, N-(3,3-difluorocyclobutyl)-2-methyl-5-{[2-(trifluoromethyl)pyridin-3-yl]methoxy}-1-benzothiophene-3-carboxamide], with more than 20000 nM.

On to `Cc1ncc(COc2ccc3sc(C)c(C(=O)N[C@H](C)C(N)=O)c3c2)s1` [Cpd 005, (2R)-2-({2-methyl-5-[(2-methyl-1,3-thiazol-5-yl)methoxy]-1-benzothiophen-3-yl}formamido)propanamide], for which the IC50 was less than 1000 nM. With `CNC(=O)c1c(C(F)F)sc2ccc(OCc3ccccc3)cc12` [Cpd 135, 5-(benzyloxy)-2-(difluoromethyl)-N-methyl-1-benzothiophene-3-carboxamide], the IC50 is more than 20000 nM. Then `Cc1sc2ccc(OCc3ccccc3)cc2c1C(=O)NC1CCOC1` (centres unmarked) [Cpd 096, 5-(benzyloxy)-2-methyl-N-(oxolan-3-yl)-1-benzothiophene-3-carboxamide], with less than 1000 nM.

For `Cc1sc2ccc(OCc3ccccn3)cc2c1C(=O)NC1(C(N)=O)CCOCC1` [Cpd 071, 4-{2-methyl-5-[(pyridin-2-yl)methoxy]-1-benzothiophene-3-amido}oxane-4-carboxamide], the IC50 is less than 1000 nM. The same measure for `Cc1ncsc1COc1ccc2sc(C)c(C(=O)NC(C)(C)C(N)=O)c2c1` [Cpd 031, 2-methyl-2-({2-methyl-5-[(4-methyl-1,3-thiazol-5-yl)methoxy]-1-benzothiophen-3-yl}formamido)propanamide]: less than 1000 nM; for `Cc1ncc(COc2ccc3sc(C)c(C(=O)NC4(CO)CCOCC4)c3c2)s1` [Cpd 024, N-[4-(hydroxymethyl)oxan-4-yl]-2-methyl-5-[(2-methyl-1,3-thiazol-5-yl)methoxy]-1-benzothiophene-3-carboxamide]: 1000 to 20000 nM. Then `Cc1ncsc1COc1ccc2sc(C)c(C(=O)NC(C)(CO)CO)c2c1` [Cpd 032, N-(1,3-dihydroxy-2-methylpropan-2-yl)-2-methyl-5-[(4-methyl-1,3-thiazol-5-yl)methoxy]-1-benzothiophene-3-carboxamide], with less than 1000 nM. The same measure for `CNC(=O)C1(NC(=O)c2c(C)sc3ccc(OCc4cnc(C)s4)cc23)CCOC1` (single isomer, unassigned) [Cpd 133 - En2, N-methyl-3-{2-methyl-5-[(2-methyl-1,3-thiazol-5-yl)methoxy]-1-benzothiophene-3-amido}oxolane-3-carboxamide]: less than 1000 nM.

In turn, `Cc1sc2ccc(OCc3cccnc3C(F)(F)F)cc2c1C(=O)NCCN1CCOC1=O` [Cpd 107, 2-methyl-N-[2-(2-oxo-1,3-oxazolidin-3-yl)ethyl]-5-{[2-(trifluoromethyl)pyridin-3-yl]methoxy}-1-benzothiophene-3-carboxamide] had an IC50 of 1000 to 20000 nM. On to `Cc1sc2ccc(OCc3ccccc3)cc2c1C(=O)NCC1(N(C)C)CCCC1` [Cpd 111, 5-(benzyloxy)-N-{[1-(dimethylamino)cyclopentyl]methyl}-2-methyl-1-benzothiophene-3-carboxamide], for which the IC50 was less than 1000 nM. The same measure for `O=C(NC1CC(F)(F)C1)c1c(C(F)F)sc2ccc(OCc3ccccc3)cc12` [Cpd 145, 5-(benzyloxy)-N-(3,3-difluorocyclobutyl)-2-(difluoromethyl)-1-benzothiophene-3-carboxamide]: more than 20000 nM. The same measure for `Cc1sc2ccc(OCc3cccnc3C(F)(F)F)cc2c1C(=O)NC1CCNC1=O` (centres unmarked) [Cpd 094, 2-methyl-N-(2-oxopyrrolidin-3-yl)-5-{[2-(trifluoromethyl)pyridin-3-yl]methoxy}-1-benzothiophene-3-carboxamide]: less than 1000 nM; for `Cc1ncc(COc2ccc3sc(C)c(C(=O)N[C@@H](C)C(N)=O)c3c2)s1` [Cpd 011, (2S)-2-({2-methyl-5-[(2-methyl-1,3-thiazol-5-yl)methoxy]-1-benzothiophen-3-yl}formamido)propanamide]: less than 1000 nM. The same measure for `Cc1sc2ccc(OCC3COC3)cc2c1C(=O)NC(C)(CO)C(N)=O` (single isomer, unassigned) [Cpd 068 - En2, 3-hydroxy-2-methyl-2-({2-methyl-5-[(oxetan-3-yl)methoxy]-1-benzothiophen-3-yl}formamido)propanamide]: 1000 to 20000 nM; for `Cc1sc2ccc(OCc3ccccc3)cc2c1C(=O)N[C@H]1CCNC1=O` [Cpd 060, 5-(benzyloxy)-2-methyl-N-[(3S)-2-oxopyrrolidin-3-yl]-1-benzothiophene-3-carboxamide]: less than 1000 nM. For `Cc1sc2ccc(OCc3cccnc3C(F)(F)F)cc2c1C(=O)N[C@H](CO)C(N)=O` [Cpd 058, (2R)-3-hydroxy-2-[(2-methyl-5-{[2-(trifluoromethyl)pyridin-3-yl]methoxy}-1-benzothiophen-3-yl)formamido]propanamide], the IC50 was less than 1000 nM. As for `Cc1sc2ccc(OCc3ccccc3F)cc2c1C(=O)NC1(C(N)=O)CCOCC1` [Cpd 070, 4-{5-[(2-fluorophenyl)methoxy]-2-methyl-1-benzothiophene-3-amido}oxane-4-carboxamide], the IC50 is less than 1000 nM.

On to `Cc1sc2ccc(OCc3ccccn3)cc2c1C(=O)NC1(CO)CCC1` [Cpd 078, N-[1-(hydroxymethyl)cyclobutyl]-2-methyl-5-[(pyridin-2-yl)methoxy]-1-benzothiophene-3-carboxamide], for which the IC50 was less than 1000 nM. Then `Cc1sc2ccc(OCc3cccnc3C(F)(F)F)cc2c1C(=O)NC1(CO)CC1` [Cpd 076, N-[1-(hydroxymethyl)cyclopropyl]-2-methyl-5-{[2-(trifluoromethyl)pyridin-3-yl]methoxy}-1-benzothiophene-3-carboxamide], with less than 1000 nM. As for `Cc1sc2ccc(OCc3ccccc3)cc2c1C(=O)NCC(C)(C)O` [Cpd 100, 5-(benzyloxy)-N-(2-hydroxy-2-methylpropyl)-2-methyl-1-benzothiophene-3-carboxamide], the IC50 was 1000 to 20000 nM.

In turn, `Cc1ncsc1COc1ccc2sc(C)c(C(=O)NC3(C(N)=O)COC3)c2c1` [Cpd 038, 3-{2-methyl-5-[(4-methyl-1,3-thiazol-5-yl)methoxy]-1-benzothiophene-3-amido}oxetane-3-carboxamide] showed an IC50 of less than 1000 nM. `Cc1sc2ccc(OCc3ccccc3F)cc2c1C(=O)NC1CCNC1=O` (centres unmarked) [Cpd 093, 5-[(2-fluorophenyl)methoxy]-2-methyl-N-(2-oxopyrrolidin-3-yl)-1-benzothiophene-3-carboxamide] gave a half-inhibitory concentration (IC50) of less than 1000 nM. Then `Cc1sc2ccc(OCc3cccnc3O)cc2c1C(=O)NC1(CO)CCOCC1` [Cpd 084, N-[4-(hydroxymethyl)oxan-4-yl]-5-[(2-hydroxypyridin-3-yl)methoxy]-2-methyl-1-benzothiophene-3-carboxamide], with less than 1000 nM; and `Cc1sc2ccc(OCc3cccnc3C(F)(F)F)cc2c1C(=O)NCC(C)(C)O` [Cpd 101, N-(2-hydroxy-2-methylpropyl)-2-methyl-5-{[2-(trifluoromethyl)pyridin-3-yl]methoxy}-1-benzothiophene-3-carboxamide], with less than 1000 nM; and `Cc1ncc(COc2ccc3sc(C)c(C(=O)N[C@H](CO)C(N)=O)c3c2)s1` [Cpd 017, (2R)-3-hydroxy-2-({2-methyl-5-[(2-methyl-1,3-thiazol-5-yl)methoxy]-1-benzothiophen-3-yl}formamido)propanamide], with less than 1000 nM. The same measure for `Cc1sc2ccc(OCc3ccccc3)cc2c1C(=O)NCCN1CCOC1=O` [Cpd 106, 5-(benzyloxy)-2-methyl-N-[2-(2-oxo-1,3-oxazolidin-3-yl)ethyl]-1-benzothiophene-3-carboxamide]: 1000 to 20000 nM. Then `Cc1sc2ccc(OCc3cccnc3C(F)(F)F)cc2c1C(=O)NC1CCN(C)C1` (centres unmarked) [Cpd 125, 2-methyl-N-(1-methylpyrrolidin-3-yl)-5-{[2-(trifluoromethyl)pyridin-3-yl]methoxy}-1-benzothiophene-3-carboxamide], with less than 1000 nM.

One may read the IC50 as the concentration that inhibits the measured activity by half. Higher therefore signals lower potency.
